Consider one compound from ChEMBL document CHEMBL5046240, “Design, synthesis, and evaluation of potent RIPK1 inhibitors with in vivo anti-inflammatory activity” (Eur J Med Chem, 2022).

The source made the active and inactive calls. The calls are words filed in the database; no cut-off is given here.

A word on the EC50: it is the concentration that produces a half-maximal response. In general, inhibition refers to how much of the control response was suppressed. Read a high inhibition as strong suppression. One may read the Tmax as the time at which the peak concentration occurs. The term clearance denotes the volume of plasma or blood freed of the substance per unit of time. High values mean a high capacity for elimination, low ones a low capacity for elimination. By half-life is commonly meant the time in which the quantity being followed falls by half. Lower therefore signals fast loss.

In one series the test system is HT-29. The experiment in a line: Anti-necroptic activity in human HT-29 cells assessed as TNFalpha/Z-VAD (TSZ) induced necroptosis by measuring cell viability preincubated for 1 hr followed by TSZ addition ans measured after 24 hrs by celltiter-glo luminescent cell viability assay. The class given is functional, cell-based. For orientation: In ATP-based viability assays light output follows the ATP content of the culture.

The target of another series is T1, CYP1A2 (Homo sapiens, UniProt P05177).
T1 sequence (P05177 whole entry): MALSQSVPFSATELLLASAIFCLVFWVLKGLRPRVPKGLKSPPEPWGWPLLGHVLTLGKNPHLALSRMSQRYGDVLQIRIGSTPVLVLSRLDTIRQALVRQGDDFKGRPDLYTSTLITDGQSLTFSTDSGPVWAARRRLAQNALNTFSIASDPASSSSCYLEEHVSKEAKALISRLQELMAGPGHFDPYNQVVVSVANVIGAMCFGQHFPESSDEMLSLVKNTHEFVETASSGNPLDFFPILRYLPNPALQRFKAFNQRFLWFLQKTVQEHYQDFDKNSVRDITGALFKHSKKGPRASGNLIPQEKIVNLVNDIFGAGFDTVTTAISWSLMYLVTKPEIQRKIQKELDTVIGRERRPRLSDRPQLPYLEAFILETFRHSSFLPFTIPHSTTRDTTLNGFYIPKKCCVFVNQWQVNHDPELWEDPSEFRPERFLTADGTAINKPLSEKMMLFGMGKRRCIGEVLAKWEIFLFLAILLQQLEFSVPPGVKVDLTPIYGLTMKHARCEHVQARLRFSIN
The experiment in a line: Inhibition of CYP1A2 (unknown origin) using Phenacetin as cocktail probe substrate at 10 uM preincubated for 20 mins followed by substrate addition and measured after 20 mins by LC-MS/MS analysis relative to control. The class given is ADME. To be noted: time 40 min.

Series [1] is described as follows: Permeability across apical to basolateral side in human Caco-2 cells at pH 7.4 by LC-MS/MS analysis. The class given is ADME, cell-based. To be noted: Caco-2, pH 7.4, read-out: permeability. On the technique in general: Passage across Caco-2 layers is used to estimate intestinal permeability.
Series [2] can be described thus: Metabolic stability in human liver microsomes assessed as intrinsic clearance by LC-MS/MS analysis. Type of series: ADME, Microsome. To be noted: read-out: CLH. Background: Microsomes from liver hold many membrane-bound enzymes, among them those of drug oxidation.
Series [3] can be described thus: Tmax in Sprague-Dawley rat at 10 mg/kg, po measured upto 24 hrs by LC-MS/MS analysis. The class given is ADME, organism-based. To be noted: in vivo.
Series [4] is described as follows: Clearance in Sprague-Dawley rat at 2 mg/kg, iv measured upto 24 hrs by LC-MS/MS analysis. Type of series: ADME, organism-based. To be noted: in vivo.
A short description of series [5]: Oral bioavailability in Sprague-Dawley rat at 10 mg/kg measured upto 24 hrs by LC-MS/MS analysis. Type of series: ADME, organism-based. To be noted: in vivo.
The subject of series [6] is Mus musculus. Kind of series: Anti-necroptosis activity against TNFalpha-induced C57BL/6J mouse systemic inflammatory response syndrome model assessed as reduction in lethal shock at 3 mg/kg, ip pretreated for 15 mins and measured upto 72 hrs after TNFalpha stimulation. Type of series: functional, organism-based.
Series [7] has as its system Mus musculus. Kind of series: Antiinflammatory activity in TNFalpha-induced C57BL/6J mouse systemic inflammatory response syndrome model assessed as reduction in IL-6 production in serum at 3 mg/kg, ip pretreated for 15 mins and measured upto 72 hrs after TNFalpha stimulation. Type of series: functional, organism-based.
Series [8] is described as follows: Toxicity in C57BL/6J mouse assessed as effect on body weight at 5 to 25 mg/kg, po administered daily for 7 days. Type of series: organism-based. To be noted: in vivo, 168 h, dose 5-25 mg/kg, time 7 day.
Series [9] is described as follows: Toxicity in C57BL/6J mouse assessed as effect on liver morphological changes at 5 to 25 mg/kg, po administered daily for 7 days by H and E staining method. The class given is organism-based. To be noted: in vivo, 168 h, dose 5-25 mg/kg, time 7 day.
A short description of series [10]: Half life in Sprague-Dawley rat at 10 mg/kg , po measured upto 24 hrs by LC-MS/MS analysis. To be noted: in vivo. The class given is ADME, organism-based.
Series [11] in a line: Toxicity in C57BL/6J mouse assessed as effect on behavioral change at 5 to 25 mg/kg, po administered daily for 7 days. Type of series: organism-based. To be noted: in vivo, 168 h, dose 5-25 mg/kg, time 7 day.
A short description of series [12]: Fraction unbound clearance in Sprague-Dawley rat. The class given is ADME.

Consider `Cc1ncc(-c2ccc3nc(NC(=O)C4CC4)sc3c2)cc1NC(=O)OC1CCOCC1`, for which the EC50 in the series on HT-29 stood at 0.017 µM. In addition, the inhibition at 20 min, 10 µM against CYP1A2 was determined as 16%. In [1], the Papp A→B was 33 ×10⁻⁶ cm/s. Moreover, the CLint scaled in series [2] was 49 mL/min/kg. In [3], the Tmax worked out at 1.2 h. This compound also displayed a clearance in series [4] of 33 mL/min/kg. Moreover, the F in series [5] was 63%. Also, the result in the series on Mus musculus [6] and in the series on Mus musculus [7] was Active. Also, the Activity entry in series [8], in [9] and in [11] was “Non-Toxic” each time. Further, the half-life in series [10] is 1.7 h. The same compound had a CL free in series [12] of 183 mL/min/kg.
